In brackets after ≈: the same amount, converted by molar mass. Where two headings read alike, the source gives them in different places.
Assays:
[1] = system: murine Raw 264.7 macrophages; details: mouse
VERO cell line = experiment: Eukaryotic cytotoxicity (CellTiter-Glo); format: cell-based, African green monkey; details: Chlorocebus sabaeus, 48 h, 2-day incubation, read-out: VERO Toxicity IC50
Experimental: Cytotoxicity was tested against the African green monkey adult kidney cell line (VERO, ATCC CRL-1586) as described. Compounds were tested as 10-point, 3-fold serial dilutions in DMSO (final assay concentration of 1% DMSO) and viability was measured using CellTiter-Glo (Promega). Inhibition curves were fitted using the Levenberg–Marquardt algorithm. IC50 was defined as the concentration required to reduce cell viability by 50% after 2-day incubation.

[2] = Relative solubility by turbidity in microbiological medium; details: pH 6.8, aqueous buffer, kinetic from dmso stock, lowest concentration at which compound was insoluble (turbidity)
Experimental: The relative solubility of compounds was determined in microbiological medium using turbidity as a measure [27]. A serial dilution of compounds was prepared in DMSO and then transferred to microbiological medium at pH 6.8.

in vitro [3] = format: in vitro ADME; details: human, s9, NADPH, 37°C
Experimental: Compounds were tested for microsomal stability using pooled human liver S9 microsomes. Microsomes were incubated with the test compound at 37°C in the presence of the co-factor NADPH. The reaction was terminated, the supernatant recovered, and test compounds quantified by LC-MS/MS. A fixed concentration of test compound was tested in duplicate at 5 timepoints and compound stability was expressed as a function of time. Human liver microsomes were purchased from Celsis (catalog number X008068).

in vivo = experiment: in vivo; design: species or system Balb/c mice
Experimental: ND-11543 was dissolved in 20% TPGS (d-α tocopheryl polyethylene glycol 1000 succinate) to give a fine white suspension which was dosed at 100, 300 and 500 mg/kg orally on three consecutive days, 3 mice per dose group. Mice were observed 10 min, 1, 2, 4 hr after dosing and then daily afterwards. During the observations, humane handling practices and animal welfare regulations were strictly followed.

Single dose plasma PK = format: in vivo, Balb/c mice
Experimental: Basic pharmacokinetic analysis was determined after a single dose of 200 mg/kg with and without the administration of 100 mg/kg of 1-aminobenzotriazole (ABT) (Sigma, #A3940) given 2 hr by gavage prior to ND-11543 administration. ABT (100 mg/kg dose) was administered by oral gavage in 0.5% (w/v) methyl cellulose 400 solution. ND-11543 (200 mg/kg dose) was prepared in 20% TPGS and dosed orally 2 hr after ABT administration. Female mice (6–8 week old Balb/c from Charles River) were rested one to two weeks before dosing. Blood was collected from the mice at time points of 0.5, 2, 4, 8, 12 and 24 hr after drug administration. Blood samples (< 100 μL each) for all time points were collected via the mandibular vein in plasma collector tubes, centrifuged and plasma (< 50 μL each) was frozen until further use. Plasma samples were analyzed by LC/MS to determine drug plasma levels.

in vitro [4] = details: human, Caco-2
[5] = system: CYP2B6, CYP2C8, CYP2C9, CYP2C19, CYP2D6, CYP3A4; experiment: in vitro; format: in vitro ADME; details: human; range over isoforms, >10 to >20; read-out: IC50 against all the major cytochrome P450 isoforms
Experimental: (§1) Compounds were tested for inhibition of six cytochrome P450 enzyme isoforms—CYP2B6, CYP2C8, CYP2C9, CYP2C19, CYP2D6 and CYP3A4 [27]. For each assay, human liver microsomes were incubated with a probe substrate for each CYP isoform in the presence of compound. Compounds were prepared as a 7-point dilution series in acetonitrile:DMSO (9:1). The final DMSO content in the reaction mixture was equal in all solutions used within an assay and was < 0.2%. Samples were run in duplicate.

[6] = system: M. tuberculosis GC1237 (Mtb-GFP) in Raw 264.7 macrophages; experiment: Intracellular mycobacterial replication assay in macrophages; format: cell-based; details: Mycobacterium tuberculosis, 120 h, 5 days, read-out: MIC, intracellular M. tuberculosis growth in macrophages
[7] = system: M. tuberculosis strain H37Rv-LUX; experiment: microbe, parasite or virus in culture; format: cell-based; details: Mycobacterium tuberculosis, read-out: LORA MIC
M. tuberculosis Erdman = experiment: Chronic Balb/c model of TB infection; format: in vivo, Balb/c mice; details: 200 mg/kg
H37Rv-Mtb = experiment: MIC against replicating H37Rv-Mtb in liquid media; format: cell-based, Mycobacterium tuberculosis; details: Mycobacterium tuberculosis, H37RV, 120 h, replicating, 5 days, OD590
CYP2C9 = biological target: T1, CYP2C9 (Homo sapiens, UniProt P11712); experiment: biochemical; format: in vitro ADME; details: human liver microsomes; read-out: Cytochrome P450 Inhibition IC50 CYP2C9
T1 construct: human liver microsomes were incubated with a probe substrate for each CYP isoform; from tissue; host or cells: human liver microsomes
T1 sequence (P11712 whole entry, canonical isoform): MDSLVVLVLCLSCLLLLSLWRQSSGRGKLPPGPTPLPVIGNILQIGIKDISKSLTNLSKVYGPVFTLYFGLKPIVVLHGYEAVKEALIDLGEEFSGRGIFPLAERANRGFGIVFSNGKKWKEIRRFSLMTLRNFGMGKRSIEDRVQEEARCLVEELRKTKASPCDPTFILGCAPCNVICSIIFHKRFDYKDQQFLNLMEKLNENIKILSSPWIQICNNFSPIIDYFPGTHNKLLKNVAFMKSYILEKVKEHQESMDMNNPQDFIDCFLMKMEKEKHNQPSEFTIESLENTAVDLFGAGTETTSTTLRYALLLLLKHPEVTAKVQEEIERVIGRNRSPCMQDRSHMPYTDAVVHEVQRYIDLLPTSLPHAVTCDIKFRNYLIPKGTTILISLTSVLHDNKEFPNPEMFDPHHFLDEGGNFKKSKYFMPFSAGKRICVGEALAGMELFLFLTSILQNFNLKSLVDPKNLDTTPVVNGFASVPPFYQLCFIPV
Experimental: as §1

CYP2C19 = biological target: T2, CYP2C19 (Homo sapiens, UniProt P33261); experiment: biochemical; format: in vitro ADME; details: human liver microsomes; read-out: Cytochrome P450 Inhibition IC50 CYP2C19
T2 construct: human liver microsomes were incubated with a probe substrate for each CYP isoform; from tissue; host or cells: human liver microsomes
T2 sequence (P33261 whole entry, canonical isoform): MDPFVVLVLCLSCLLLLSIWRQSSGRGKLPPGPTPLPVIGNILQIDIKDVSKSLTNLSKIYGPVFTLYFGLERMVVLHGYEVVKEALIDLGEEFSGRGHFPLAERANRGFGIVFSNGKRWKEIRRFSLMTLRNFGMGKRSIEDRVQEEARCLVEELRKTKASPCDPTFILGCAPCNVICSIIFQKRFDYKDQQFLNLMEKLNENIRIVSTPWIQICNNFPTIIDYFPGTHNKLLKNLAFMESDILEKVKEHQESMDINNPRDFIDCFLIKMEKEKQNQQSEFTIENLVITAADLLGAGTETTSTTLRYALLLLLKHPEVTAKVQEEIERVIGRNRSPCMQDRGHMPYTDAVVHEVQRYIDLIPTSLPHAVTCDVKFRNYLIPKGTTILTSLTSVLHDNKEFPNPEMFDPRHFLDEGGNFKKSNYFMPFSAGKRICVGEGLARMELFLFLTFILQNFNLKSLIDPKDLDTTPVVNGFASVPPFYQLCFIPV
Experimental: as §1

CYP2B6 = biological target: T3, CYP2B6 (Homo sapiens, UniProt P20813); experiment: biochemical; format: in vitro ADME; details: human liver microsomes; read-out: Cytochrome P450 Inhibition IC50 CYP2B6
T3 construct: human liver microsomes were incubated with a probe substrate for each CYP isoform; from tissue; host or cells: human liver microsomes
T3 sequence (P20813 whole entry, canonical isoform): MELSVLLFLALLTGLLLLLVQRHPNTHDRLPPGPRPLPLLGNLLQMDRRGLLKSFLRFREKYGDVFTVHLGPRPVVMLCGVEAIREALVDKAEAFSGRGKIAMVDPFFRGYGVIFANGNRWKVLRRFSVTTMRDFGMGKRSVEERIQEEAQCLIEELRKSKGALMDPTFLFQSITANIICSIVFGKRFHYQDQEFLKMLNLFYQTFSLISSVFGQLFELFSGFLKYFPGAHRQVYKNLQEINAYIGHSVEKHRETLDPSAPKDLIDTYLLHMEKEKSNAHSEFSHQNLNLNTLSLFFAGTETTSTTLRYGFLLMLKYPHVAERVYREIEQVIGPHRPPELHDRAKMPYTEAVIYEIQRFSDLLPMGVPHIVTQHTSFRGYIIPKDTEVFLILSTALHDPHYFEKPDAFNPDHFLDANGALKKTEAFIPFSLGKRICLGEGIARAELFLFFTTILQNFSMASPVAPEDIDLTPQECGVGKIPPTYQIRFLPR
Experimental: as §1

CYP2C8 = biological target: T4, CYP2C8 (Homo sapiens, UniProt P10632); experiment: biochemical; format: in vitro ADME; details: human liver microsomes; read-out: Cytochrome P450 Inhibition IC50 CYP2C8
T4 construct: human liver microsomes were incubated with a probe substrate for each CYP isoform; from tissue; host or cells: human liver microsomes
T4 sequence (P10632 whole entry, canonical isoform): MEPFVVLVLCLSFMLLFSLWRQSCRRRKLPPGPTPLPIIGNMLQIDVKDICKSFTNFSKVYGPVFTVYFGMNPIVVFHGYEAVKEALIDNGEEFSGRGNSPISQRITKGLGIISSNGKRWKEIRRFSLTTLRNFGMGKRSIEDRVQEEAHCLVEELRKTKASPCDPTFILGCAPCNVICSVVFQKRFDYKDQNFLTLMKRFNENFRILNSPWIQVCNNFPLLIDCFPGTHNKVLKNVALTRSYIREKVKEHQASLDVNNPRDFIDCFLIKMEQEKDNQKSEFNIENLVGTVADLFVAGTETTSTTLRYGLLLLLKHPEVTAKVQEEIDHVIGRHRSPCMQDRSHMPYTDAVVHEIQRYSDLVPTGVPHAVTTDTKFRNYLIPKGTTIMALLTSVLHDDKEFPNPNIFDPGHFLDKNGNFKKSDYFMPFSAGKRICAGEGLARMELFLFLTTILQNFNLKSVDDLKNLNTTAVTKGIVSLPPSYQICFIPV
Experimental: as §1

CYP3A4 = biological target: T5, CYP3A4 (Homo sapiens, UniProt P08684); experiment: biochemical; format: in vitro ADME
T5 construct: human liver microsomes were incubated with a probe substrate for each CYP isoform; from tissue; host or cells: human liver microsomes
T5 sequence (P08684 whole entry, canonical isoform): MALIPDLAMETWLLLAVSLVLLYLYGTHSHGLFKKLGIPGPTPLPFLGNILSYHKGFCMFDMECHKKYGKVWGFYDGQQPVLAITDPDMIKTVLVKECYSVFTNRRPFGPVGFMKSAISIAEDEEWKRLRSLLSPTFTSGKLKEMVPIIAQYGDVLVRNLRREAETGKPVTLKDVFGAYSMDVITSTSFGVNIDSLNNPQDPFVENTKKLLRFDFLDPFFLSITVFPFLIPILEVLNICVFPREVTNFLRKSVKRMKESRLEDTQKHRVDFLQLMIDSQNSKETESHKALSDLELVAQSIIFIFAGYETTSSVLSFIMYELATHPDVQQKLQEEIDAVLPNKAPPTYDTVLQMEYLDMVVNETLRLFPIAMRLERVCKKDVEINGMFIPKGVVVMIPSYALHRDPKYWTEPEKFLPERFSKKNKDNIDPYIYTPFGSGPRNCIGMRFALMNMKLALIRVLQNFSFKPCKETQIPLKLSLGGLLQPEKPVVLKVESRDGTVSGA
Experimental: as §1

CYP2D6 = biological target: T6, CYP2D6 (Homo sapiens, UniProt P10635); experiment: biochemical; format: in vitro ADME; details: human liver microsomes; read-out: Cytochrome P450 Inhibition IC50 CYP2D6
T6 construct: human liver microsomes were incubated with a probe substrate for each CYP isoform; from tissue; host or cells: human liver microsomes
T6 sequence (P10635 whole entry, canonical isoform): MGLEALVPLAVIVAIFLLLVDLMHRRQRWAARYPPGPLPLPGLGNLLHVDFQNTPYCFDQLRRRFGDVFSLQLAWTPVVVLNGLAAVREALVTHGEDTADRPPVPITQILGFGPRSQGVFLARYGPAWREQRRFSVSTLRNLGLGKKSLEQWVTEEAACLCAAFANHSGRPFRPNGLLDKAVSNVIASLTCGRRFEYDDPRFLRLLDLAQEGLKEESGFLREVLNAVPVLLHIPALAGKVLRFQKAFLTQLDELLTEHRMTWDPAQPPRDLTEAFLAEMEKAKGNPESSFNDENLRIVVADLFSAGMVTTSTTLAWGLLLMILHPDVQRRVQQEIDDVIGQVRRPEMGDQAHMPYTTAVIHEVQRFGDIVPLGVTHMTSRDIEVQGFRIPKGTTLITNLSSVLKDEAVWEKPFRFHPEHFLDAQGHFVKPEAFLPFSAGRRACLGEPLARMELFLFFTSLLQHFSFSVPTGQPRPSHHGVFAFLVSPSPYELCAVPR
Experimental: as §1

Cc1cn2c(C(=O)NCc3ccc(N4CCN(c5ccc(C(F)(F)F)cn5)CC4)c(F)c3)c(C)nc2s1 [ND-11543, N-(3-fluoro-4-(4-(5-(trifluoromethyl)pyridin-2-yl)piperazin-1-yl)benzyl)-2,6-dimethylimidazo[2,1-b]thiazole-5-carboxamide]
Macrophage toxicity concentration relative to MIC [1]: 4 and 8-fold higher than their MIC
IC50 (VERO cell line): > 50 µM
solubility [2]: 50 µM (≈ 26.6 µg/mL)
microsomal CLint (in vitro [3]; read-out: Human liver S9 Microsomes CL): 81.3 µL/min/mg
half-life (in vitro [3]; read-out: Human liver S9 Microsomes T ½): 28.4 min
MTD (in vivo; female, Balb/c, mouse, in vivo, mice, oral, three consecutive daily doses, read-out: Maximum Tolerated Dose, MTD): > 500 mg/kg
Acute toxicity observation (in vivo; mice, 100, 300 and 500 mg/kg oral): No acute toxicity was observed
AUC(0–24)/Dose (Single dose plasma PK; 200 mg/kg oral, without ABT): 58.5 ng·h/mL/mg/kg
Cmax/Dose (Single dose plasma PK; 200 mg/kg oral, without ABT): 3.22 ng/mL/mg/kg
Relative Bioavailability [(TA+ABT) / TA] (Single dose plasma PK; female, Balb/c, mouse, in vivo): 318.25
half-life (Single dose plasma PK; female, Balb/c, mouse, plasma, 200 mg/kg oral, without ABT): > 1440 min
Papp A→B at 1 h (in vitro [4]): 0.376 ×10⁻⁶ cm/s
Papp A→B at 2 h (in vitro [4]): 0.731 ×10⁻⁶ cm/s
Papp B→A at 1 h (in vitro [4]): 1.09 ×10⁻⁶ cm/s
Papp B→A at 2 h (in vitro [4]): 0.758 ×10⁻⁶ cm/s
efflux ratio (in vitro [4]): 2.23
IC50 [5]: > 10 µM
MIC [6]: 0.0625 µM (≈ 0.0333 µg/mL)
MIC [7]: 1.1 µM (≈ 0.586 µg/mL)
Log reduction vs Control (Lung) (M. tuberculosis Erdman; 4 weeks, without ABT): 0.30 log10 CFU
Log reduction vs Control (Spleen) (M. tuberculosis Erdman; 4 weeks, without ABT): 0.36 log10 CFU
Lung Log10 CFU ±SEM (M. tuberculosis Erdman; ERDMAN, 672 h): 5.49 ± 0.08 Log10 CFU
Spleen Log10 CFU ±SEM (M. tuberculosis Erdman; ERDMAN, 672 h): 4.64 ± 0.11 Log10 CFU
MIC (H37Rv-Mtb): 0.008 µM (≈ 0.00426 µg/mL)
IC50 (CYP2C9): 10.2 µM
IC50 (CYP2C19): > 20 µM
IC50 (CYP2B6): > 20 µM
IC50 (CYP2C8): 18.4 µM
IC50 (CYP3A4; DDI assay including midazolam, read-out: Cytochrome P450 Inhibition IC50 CYP3A4 (midazolam)): > 20 µM
IC50 (CYP3A4; DDI assay including tetosterone, read-out: Cytochrome P450 Inhibition IC50 CYP3A4 (tetosterone)): > 20 µM
IC50 (CYP2D6): > 20 µM

— paper PMC6944458, “Intracellular and in vivo evaluation of imidazo[2,1-b]thiazole-5-carboxamide anti-tuberculosis compounds” (PLoS ONE, 2020)
